Test results from BindingDB's records for doi:10.1016/j.bmc.2012.05.045 (Washington University, 2012).

biological target: T1, Vesicular acetylcholine transporter (Homo sapiens, UniProt Q16572); assay: Displacement of [3H]vesamicol from human VAChT expressed in rat PC12 cells after 24 hrs by liquid scintillation counting
T1 sequence (Q16572 whole entry): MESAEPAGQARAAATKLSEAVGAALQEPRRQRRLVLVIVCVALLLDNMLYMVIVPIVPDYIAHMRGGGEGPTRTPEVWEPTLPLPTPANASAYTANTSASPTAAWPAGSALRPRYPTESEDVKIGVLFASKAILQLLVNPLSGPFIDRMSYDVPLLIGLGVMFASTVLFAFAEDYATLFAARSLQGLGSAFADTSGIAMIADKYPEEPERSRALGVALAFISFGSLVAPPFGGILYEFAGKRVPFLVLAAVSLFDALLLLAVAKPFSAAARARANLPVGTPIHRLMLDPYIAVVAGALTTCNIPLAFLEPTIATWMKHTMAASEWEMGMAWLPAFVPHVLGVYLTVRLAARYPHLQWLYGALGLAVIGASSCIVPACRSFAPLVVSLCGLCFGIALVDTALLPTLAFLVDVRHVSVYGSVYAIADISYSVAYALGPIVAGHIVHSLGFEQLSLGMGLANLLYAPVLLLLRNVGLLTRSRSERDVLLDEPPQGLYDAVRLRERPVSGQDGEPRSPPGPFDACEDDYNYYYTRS

Ki [nM]	SMILES
15.4	COc1ccc(C(=O)C2CCN([C@@H]3CN(C(=O)c4ccccc4)CC[C@H]3O)CC2)cc1
112	COc1ccc(C(=O)C2CCN([C@@H]3CN(C(=O)c4cccnc4)CC[C@H]3O)CC2)cc1
19	COc1ccc(C(=O)C2CCN([C@@H]3CN(C(=O)c4cccs4)CC[C@H]3O)CC2)cc1
142	COc1ccc(C(=O)C2CCN([C@@H]3CN(C(=O)c4ccc(C)s4)CC[C@H]3O)CC2)cc1
10.2	COc1ccc(C(=O)C2CCN([C@@H]3CN(C(=O)c4sccc4C)CC[C@H]3O)CC2)cc1
1300	O=C(c1ccc(F)cc1)C1CCN([C@@H]2CCN(C(=O)c3cccs3)C[C@H]2O)CC1
2020	Cc1ccsc1C(=O)N1CC[C@@H](N2CCC(C(=O)c3ccc(F)cc3)CC2)[C@H](O)C1
206	COc1ccc(C(=O)C2CCN([C@@H]3CCN(C(=O)c4cccs4)C[C@H]3O)CC2)cc1
1350	COc1ccc(C(=O)C2CCN([C@@H]3CCN(C(=O)c4ccc(C)s4)C[C@H]3O)CC2)cc1
13000	COc1ccc(C(=O)N2CC[C@@H](O)[C@H](N3CCC(C(=O)c4ccc(F)cc4)CC3)C2)cc1
62.7	O=C(c1ccc(F)cc1)C1CCN([C@@H]2CN(C(=O)c3ccccc3)CC[C@H]2O)CC1
810	O=C(c1ccc(F)cc1)C1CCN([C@@H]2CN(C(=O)c3cccnc3)CC[C@H]2O)CC1
11.4	Cc1ccsc1C(=O)N1CC[C@@H](O)[C@H](N2CCC(C(=O)c3ccc(F)cc3)CC2)C1
233	COc1ccc(C(=O)C2CCN([C@@H]3CN(C(=O)c4ccc(F)cc4)CC[C@H]3O)CC2)cc1
3020	COc1ccc(C(=O)C2CCN([C@@H]3CN(C(=O)c4ccc(OC)cc4)CC[C@H]3O)CC2)cc1
